Experimental data taken from patent US20110152176A1, “AGR-MEDIATED INHIBITION AND DISPERSAL OF BIOFILMS” (priority 2008, published 2011).
Ends that are not written are not given here.

Assays:
[1] = system: SA502a (agr Type II) biofilm; test: Flow cell biofilm detachment, agr-II strain; type: cell-based, Staphylococcus aureus; details: 2-day old biofilm, 50 nM cognate AIP, over 48 hours
Experimental: (§1) Biofilm experiments. Microtiter plate biofilms were performed as described (Shanks et al., 2005) except that the plates were incubated at 37° C. with shaking at 200 rpm for 12 hours. For flow cell experiments, AIPs were generated using the DnaB intein method, and the AIP concentrations were determined as previously described (Malone et al., 2007). AIPs stocks (20 mM) were stored in 100 mM phosphate (pH 7), 50 mM NaC1, 1 mM tris(2-carboxyethyl) phosphine (TCEP) and were diluted into the biofilm flow medium to a final concentration of 50 nM. When required, […] of erythromycin and/or chloramphenicol were added to the flow cell media to maintain plasmids. The growth medium for flow cell biofilms consisted of 2% TSB plus 0.2% glucose unless otherwise indicated. Flow cell biofilm experiments and confocal microscopy were performed as previously described (Yarwood et al., 2004). Flow cells were inoculated with overnight cultures diluted 1:100 in sterile water and laminar flow (170 ml/min) was initiated after one hour incubation. […] Biofilm biomass was quantified with the COMSTAT program (Heydorn et al., 2000) and percent biomass detached was calculated by subtracting biomass present at day 4 from day 2. To quantitate the number of bacteria detaching from a biofilm, 1 ml of flow cell effluent was collected on ice at indicated time points. […]

[2] = system: S. aureus SH1000 biofilm; test: Flow cell biofilm detachment (CLSM, COMSTAT biomass, effluent CFU); type: cell-based, Staphylococcus aureus; details: for biomass detached: day 2 vs day 4
Experimental: Biofilm experiments. Microtiter plate biofilms were performed as described (Shanks et al., 2005) except that the plates were incubated at 37° C. with shaking at 200 rpm for 12 hours. For flow cell experiments, AIPs were generated using the DnaB intein method, and the AIP concentrations were determined as previously described (Malone et al., 2007). AIPs stocks (20 mM) were stored in 100 mM phosphate (pH 7), 50 mM NaC1, 1 mM tris(2-carboxyethyl) phosphine (TCEP) and were diluted into the biofilm flow medium to a final concentration of 50 nM. When required, […] of erythromycin and/or chloramphenicol were added to the flow cell media to maintain plasmids. The growth medium for flow cell biofilms consisted of 2% TSB plus 0.2% glucose unless otherwise indicated. Flow cell biofilm experiments and confocal microscopy were performed as previously described (Yarwood et al., 2004). Flow cells were inoculated with overnight cultures diluted 1:100 in sterile water and laminar flow ([…]) was initiated after one hour incubation. Confocal microscopy was performed using a Radiance 2100 system (Biorad) with a Nikon Eclipse E600 microscope. Confocal images were processed using Velocity software (Improvision, Lexington, Mass.). Biofilm biomass was quantified with the COMSTAT program (Heydorn et al., 2000) and percent biomass detached was calculated by subtracting biomass present at day 4 from day 2. To quantitate the number of bacteria detaching from a biofilm, 1 ml of flow cell effluent was collected on ice at indicated time points. The collected effluent was vortexed and sonicated in a water bath for 10 minutes to break up clumps, and serial dilutions were plated on TSA plates to determine colony forming units (CFUs). For the Proteinase K detachment experiments, the enzyme (Sigma-Aldrich) was suspended in water and added to the media reservoir at a final concentration of 2 mg/ml.
AIP detaches S. aureus biofilms. To investigate the role of the agr system in established biofilms, the inventors developed strategies to modulate level of agr activity within a biofilm. Initially, media supplementation experiments were performed using purified AIP signal in order to place the agr system under external control. The inventors recently developed a new method for AIP biosynthesis (Malone et al., 2007), enabling the production of sufficient signal levels for flow cell experiments. Through exogenous AIP addition, they could test wild-type strains and avoid any potential complications of constructed agr deletion mutants. For this approach, established flow cell biofilms were prepared using S. aureus SH1000 constitutively expressing RFP with plasmid pAH9. The flow cell media was supplemented with glucose to attenuate agr expression (Regassa et al., 1992), allowing cell attachment and biofilmdevelopment. After two days, either 1 mL of buffer (100 mM phosphate [pH 7], 50 mMNaCl, 1 mMTCEP; FIG. 2A) or 1 mL of […] in buffer (FIG. 2B and Video S1) was diluted 1000-fold (50 nM final concentration) into the growth media. Using the inventors' synthesized AIP-I in dose-response curves (Malone et al., 2007), the inventors estimate the amount of AIP-I in supernatants of TSB broth cultures (OD600 1.0-1.3) reaches approximately 400 nM (data not shown), indicating the 50 nM level used for the biofilm experiments is within a relevant concentration range. […] To confirm that AIP-I caused detachment, the inventors counted viable S. aureus cells in the effluent media (FIG. 2C). […] In contrast, the number of bacteria in the biofilm effluent without AIP-I addition remained relatively constant.

[3] = system: extracellular proteases; test: Protease activity in biofilm effluents after AIP addition (Azocoll); type: cell-based, Staphylococcus aureus; details: for protease activity in biofilm effluent relative to biofilm without AIP: wild-type SH1000 biofilm supplemented with AIP
Experimental: (§2) Monitoring protease activity. Milk agar plates for detection of protease activity consisted of 3 g/L Tryptic Soy broth, 20 g/L non-fat dry milk, and 15 g/L agar. To determine relative protease activities of strains, assays were performed as described previously using the Azocoll (Calbiochem) reagent (Fournier et al., 2001). For measuring protease levels in biofilm effluents, 100 mL of effluent was collected on ice (about 12 hours) after AIP addition to the biofilm medium. Cells were removed from the effluents through centrifugation and filtering, and ammonium sulfate was added to 60% over one hour at 4° C. to concentrate proteins. The precipitated proteins were pelleted by centrifugation at 19,000 rpm for 30 min, and the pellet was washed and resuspended in 1 ml with 10 mM Tris pH 7.5. For the protease assay, the reaction mixture was supplemented with either 1 mM EGTA, 200 mM PMSF, or 1 mM DTT to gauge relative levels of protease classes.
If S. aureus proteases have a role in detachment, proteinase K should be able to disperse an established biofilm. […] With this preliminary observation, the inventors measured the levels of protease activity in effluents from biofilms with and without AIP-I addition using Azocoll (azo dye-impregnated collagen) reagent. […] With the addition of activating AIP-I, the protease activity increased approximately five-fold compared to a biofilm with no AIP-I treatment.

[4] = system: agr P3 promoter; test: agr P3-GFP reporter (pDB59) expression in flow cell biofilms; type: cell-based, Staphylococcus aureus
Experimental: Strains and growth conditions. The bacterial strains and plasmids used in this study are described in Table 1. S. aureus or Escherichia coli were grown in tryptic soy broth (TSB) or on tryptic soy agar (TSA) with the appropriate antibiotics for plasmid selection or maintenance (erythromycin […]; chloramphenicol 10 μg/ml; tetracycline 5 μg/ml) and incubated at 37° C. Plasmid DNA was prepared from E. coli and transformed by electroporation into S. aureus RN4220 as described (Schenk and Laddaga, 1992). Plasmids were moved from RN4220 into other S. aureus strains by transduction with bacteriophage a80 (Novick, 1991) or by purifying the plasmid DNA and transformed by electroporation into appropriate strains. To move sspA and sp1ABCDEF mutations into appropriate genetic backgrounds, phage transduction with a80 was used as described (Novick, 1991). To construct the Daur mutation, the pKOR1-aur plasmid was used as described (Kavanaugh et al., 2007). Fluorescence measurements with S. aureus strains containing pDB59 were performed as previously described (Malone et al., 2007).
as §1, with “plasmids.” for “plasmids. The growth medium for flow cell biofilms consisted of 2% TSB plus 0.2% glucose unless otherwise indicated. Flow cell biofilm experiments and confocal microscopy were performed as previously described (Yarwood et al., 2004). Flow cells were inoculated with overnight cultures diluted 1:100 in sterile water and laminar flow (170 ml/min) was initiated after one hour incubation.”

[5] = system: FRI1169 (agr Type I) biofilm; test: Flow cell biofilm detachment, agr-I strain; type: cell-based, Staphylococcus aureus; details: 2-day old biofilm, 50 nM cognate AIP, over 48 hours
Experimental: as §1

[6] = system: S. aureus SH1000 biofilm and detached bacteria; test: Susceptibility of biofilm and detached bacteria to rifampicin killing; type: cell-based, Staphylococcus aureus; details: six hours
Experimental: Antibiotic sensitivity. S. aureus biofilms were grown for two days in a flow chamber lined with removable polycarbonate coupons (Flow Cell FC271, Biosurface Technologies, Bozeman Mont.). Biofilm effluents were collected on ice about 24 hours after AIP-I addition. In parallel, coupons with biofilm growth were removed from flow cells not exposed to AIP-I. Both detached bacteria and the biofilms were exposed to the indicated levels of rifampicin for six hours. Subsequently, cells were vortexed, and the coupons were sonicated in a water bath to break up the biofilm or cell clumps. Serial dilutions were plated on TSA to determine surviving CFU's.
Detached S. aureus cells regain antibiotic sensitivity. Biofilm growth of S. aureus increases resistance to antimicrobials when compared to the planktonic growth mode (Fux et al., 2004; Yarwood et al., 2004). This Biofilm-mediated resistance hinders treatment of many chronic S. aureus biofilm related infections, including endocarditis, osteomyelitis, and indwelling medical device infections (Parsek and Singh, 2003; Costerton et al., 2003). Therefore, the inventors asked whether AIP-dispersed bacteria regained sensitivity to a clinically relevant antibiotic, rifampicin. To test this, the inventors collected detached cells from an AIP-treated biofilm effluent and compared resistance to intact biofilms exposed to different levels of rifampicin. […]

[7] = system: extracellular proteases; test: Protease activity of AIP-I detached biofilm effluent with inhibitors or activators (Azocoll); type: biochemical, Staphylococcus aureus; details: EGTA 1 mM, PMSF 10 mM (method: 200 mM), DTT 1 mM
Experimental: as §2
There are 10 known extracellular proteases produced by most S. aureus strains and expression of all these enzymes is controlled by the agr system (Novick, 2003; Dunman et al., 2001; Ziebandt et al., 2004). These 10 proteases include the metalloprotease aureolysin (aur), two cysteine proteases (scpA and sspB), and seven serine proteases (sspA (V8) and sp1ABCDEF) (Dubin, 2002). To elucidate what class(es) of proteases are prevalent in AIP-treated biofilms, the effluent from a detaching biofilm was assayed for protease activity in the presence of protease inhibitors or activating agents.

[8] = wild-type SH1000 2-day flow cell biofilm, 50 nM AIP in growth media
[9] = dual-labeled SH1000 (agr type I) biofilm, 50 nM AIP after two days of growth

Molecule: AIP-II: autoinducing peptide GVNACSSLF (SEQ ID NO: 2), thiolactone bridge between C-terminal residue and internal cysteine (ester (positions not given here); not fully specified (bridges))
- biofilm detachment observed by CLSM [1]: robust detachment
- biofilm detachment observed by CLSM [2, 8]: the biofilm did not disperse
- protease activity in biofilm effluent relative to biofilm without AIP [3]: reduced the level of proteolytic activity
- induction of agr P3-GFP reporter [4, 9]: failed to induce GFP expression

Molecule: AIP-I: autoinducing peptide YSTCDFIM (SEQ ID NO: 1), thiolactone bridge between C-terminal residue and internal cysteine (ester (positions not given here); not fully specified (bridges))
- biofilm detachment observed by CLSM [5]: robust detachment
- concentration of bacteria in the effluent (CFU/ml) ([2]; 24-36 hours after AIP-I addition (50 nM), versus buffer): increased markedly
- biofilm detachment observed by CLSM ([2]; agr deletion mutant (SH1001) biofilm, AIP-I treatment): the mutant biofilm did not disperse
- biofilm detachment observed by CLSM [2, 8]: sloughed off the flow cell over a period of 1-2 days
- biomass dispersed / detached ([2]; wild-type SH1000, 50 nM AIP-I added to 2-day biofilm, within 48 hrs (day 2 vs day 4), COMSTAT): 91.3 (64.3) %
- biomass detached ([2]; Δaur mutant biofilm, 50 nM AIP-I): 54.6% (68.1)
- biomass detached ([2]; Δaur Δspl double mutant biofilm, 50 nM AIP-I): 21.7% (66.6)
- protease activity in biofilm effluent ([3]; agr mutant (SH1001) biofilm supplemented with AIP-I): very low levels of extracellular proteases
- protease activity in biofilm effluent relative to biofilm without AIP [3]: approximately five-fold
- induction of agr P3-GFP reporter ([4]; agr deletion mutant (SH1001) biofilm with dual reporters, AIP-I): lack of GFP induction
- induction of agr P3-GFP reporter [4, 9]: strong induction of the GFP reporter

Molecule: CO[C@H]1/C=C/O[C@@]2(C)Oc3c(C)c(O)c4c(O)c(c(/C=N/N5CCN(C)CC5)c(O)c4c3C2=O)NC(=O)/C(C)=C\C=C\[C@H](C)[C@H](O)[C@@H](C)[C@@H](O)[C@@H](C)[C@H](OC(C)=O)[C@@H]1C [rifampicin]
- decrease of viable cells ([6]; cells detached by AIP-I, 10 mg/ml rifampicin): 6 log
- level of rifampicin killing of the biofilm biomass ([6]; intact biofilm, 100 mg/ml rifampicin): about 2 log units

Molecule: O=S(=O)(F)Cc1ccccc1 [PMSF, reference compound]
- effect on AIP-I mediated biofilm detachment ([2]; 10 mM PMSF in combination with AIP-I versus AIP-I alone): significantly reduced the level of detachment
- biomass detached ([2]; wild-type biofilm, 10 mM PMSF in combination with 50 nM AIP-I): 48.8% (65.2)
- effect on overall protease activity of effluent [7]: reduced overall protease activity to almost undetectable levels

Molecule: O[C@@H](CS)[C@@H](O)CS [DTT]
- effect on overall protease activity of effluent [7]: did not significantly change protease activity

Molecule: O=C(O)CN(CCOCCOCCN(CC(=O)O)CC(=O)O)CC(=O)O [EGTA]
- effect on overall protease activity of effluent [7]: negligible effect
